Here are results for 8 molecules from patent publication US12433876B2, “Septin inhibitors for treatment of cancers” (UNIVERSITY OF ROCHESTER, priority 2019, dated 2025).

SMILES strings stand for the structures. A value given as a limit tells only on which side of the number the result lay.

Data set [1] concerns JIMT-1 breast cancer cells. In words: RNA-Seq whole transcriptome analysis, JIMT-1. In kind it is cell-based, human. As to conditions: 10 nM Afatinib.
The test system of data set [2] is endometrial (ECC-1 and KLE) and ovarian (HCH-1, OVCAR-3, and SKOV-3) cancer cell lines. In words: MTS cell viability, gynecologic cancer cell line panel. In kind it is cell-based. As to conditions: for proliferation in multiple endometrial and ovarian cancer cells: at considerably lower doses than FCF; for cytotoxic / anti-proliferative activity (FIG. 2A): fixed concentration 100 μM, 24 hours. On the procedure: Cell lines, Culture, and Reagents. Cells were maintained in either DMEM (SKOV-3, KLE, OVCAR-3, OVCAR8-C5 and IGROV-1) or RPMI-1640 (ECC-1 and HCH-1), supplemented with 10% fetal calf serum (or 20% for OVCAR-3), penicillin (100 units/mL), and streptomycin (100 μg/mL) at 37° C. with 5% CO2 in a humidified incubator. Antibodies were purchased from Abcam (septin-2; ab179436) and Cell Signaling Technology; ERK (9102), p-ERK (4370), -actin (3700), u-Tubulin (2144), EGFR (4267) and HER2 (4290). FCF was purchased from Abcam. All other chemicals were from Sigma Aldrich. Synthesis of Derivaties. […] The reaction was monitored using thin-layer chromatography plates with DCM-MeOH or pure ethyl acetate as eluent. Spots were monitored in a UV chamber. The reaction mixture, upon completion of the reaction, was poured into wet ice mixture and triturated, then the separated solid was filtered by vacuum. The product was washed with hexane, followed by diethyl ether, and was dried under vacuum. The compounds were characterized by spectrophotometric techniques. Quantitative Real-Time PCR. The indicated cell lines were transfected with siRNA targeting septin-2 or non-targeting control siRNA (Santa Cruz Biotechnology: sc-37007 or sc-40936) using Lipofectamine 3000 (Invitrogen). Tri reagent and Direct-zol kit (Zymo Research) were used to lyse and isolate total RNA. Reverse transcription was performed using iScript cDNA synthesis kit (BioRad), both following the manufacturer's recommendations. Quantitative real-time PCR was conducted using QuantStudio 12 K Flex Real-Time PCR System (ABI) and the Taqman Gene Expression Assay (ABI) consisting of the FAM-labeled probes as follows: SEPT2 (Hs01565417_ml); WFDC2 (Hs00899484_ml); TBP (Hs00427620_ml) or B2M (Hs00187842_ml), which was used as reference for normalization. Cell Viability, Proliferation and Apoptosis Assay. Cell viability, proliferation, and cellular apoptosis were measured using the MTS (Promega), BrdU cell proliferation (Cell Signaling Technology), and Caspase-Glo 3/7 apoptosis detection (Promega) assays, following the respective manufacturer's recommendations with suitable modification. Enzyme-Linked Immunosorbent Assay (ELISA) and Immunoblotting. Cells were maintained overnight in the culture media described above. […] Following the treatment, cell lysates and supernatants were collected and subjected to HE4 assay (Human HE4 Quantikine ELISA Kit, R&D Systems). The amount of HE4 in supernatant was normalized to the protein concentration of matching cell lysate. The levels of HER2 were determined by Human Total ErbB2/Her2 DuoSet IC ELISA (R&D systems. Wester blot analysis was conducted using the protocol previously published (see Kim, K. K. et al. Tetrathiomolybdate inhibits mitochondrial complex IV and mediates degradation of hypoxia-inducible factor-1alpha in cancer cells. Sci. Rep. 5, 14296, 2015). Data Acquisition and Statistical Analysis. Gene expression profiling of septins, comparing microdissected normal ovarian stroma (N=8) against that of tumor stroma samples (N=31) from high grade serous ovarian cancer patients, was obtained from Mixed Ovarian Cancer (CAFs)-Wong-77-u133p2 data-set through ‘R2: Genomics Analysis and Visualization Platform (http://r2/am/n1). Mean values with SD were plotted and compared using Student t-test (two tail, unpaired heteroscedastic t-test, significant difference when p<0.01). The prognostic assessment of septin-2 amongst different cancers or septins in endometrial cancer was conducted using TCGA data acquired through Human Protein Atlas (http://www.proteinatlas.org) (see Uhlen, M. et al. Towards a knowledge-based Human Protein Atlas. Nat. Biotechnol. 28, 1248-1250, 2010). Survival curves between septin high and low population and their statistical significance were analyzed using GraphPad Prism software (Mantel-Cox test). […] Structural Modification of FCF. […]

Another data set deals with HE4. In words: HE4 ELISA, secreted and intracellular levels. In kind it is cell-based, human. As to conditions: ECC-1, 5 hours. As for the experimental part:
Cell lines, Culture, and Reagents. Cells were maintained in either DMEM (SKOV-3, KLE, OVCAR-3, OVCAR8-C5 and IGROV-1) or RPMI-1640 (ECC-1 and HCH-1), supplemented with 10% fetal calf serum (or 20% for OVCAR-3), penicillin (100 units/mL), and streptomycin (100 μg/mL) at 37° C. with 5% CO2 in a humidified incubator. Antibodies were purchased from Abcam (septin-2; ab179436) and Cell Signaling Technology; ERK (9102), p-ERK (4370), -actin (3700), u-Tubulin (2144), EGFR (4267) and HER2 (4290). FCF was purchased from Abcam. All other chemicals were from Sigma Aldrich. Synthesis of Derivaties. […] The reaction was monitored using thin-layer chromatography plates with DCM-MeOH or pure ethyl acetate as eluent. Spots were monitored in a UV chamber. The reaction mixture, upon completion of the reaction, was poured into wet ice mixture and triturated, then the separated solid was filtered by vacuum. The product was washed with hexane, followed by diethyl ether, and was dried under vacuum. The compounds were characterized by spectrophotometric techniques. Quantitative Real-Time PCR. The indicated cell lines were transfected with siRNA targeting septin-2 or non-targeting control siRNA (Santa Cruz Biotechnology: sc-37007 or sc-40936) using Lipofectamine 3000 (Invitrogen). Tri reagent and Direct-zol kit (Zymo Research) were used to lyse and isolate total RNA. Reverse transcription was performed using iScript cDNA synthesis kit (BioRad), both following the manufacturer's recommendations. Quantitative real-time PCR was conducted using QuantStudio 12 K Flex Real-Time PCR System (ABI) and the Taqman Gene Expression Assay (ABI) consisting of the FAM-labeled probes as follows: SEPT2 (Hs01565417_ml); WFDC2 (Hs00899484_ml); TBP (Hs00427620_ml) or B2M (Hs00187842_ml), which was used as reference for normalization. Cell Viability, Proliferation and Apoptosis Assay. Cell viability, proliferation, and cellular apoptosis were measured using the MTS (Promega), BrdU cell proliferation (Cell Signaling Technology), and Caspase-Glo 3/7 apoptosis detection (Promega) assays, following the respective manufacturer's recommendations with suitable modification. Enzyme-Linked Immunosorbent Assay (ELISA) and Immunoblotting. Cells were maintained overnight in the culture media described above. […] Following the treatment, cell lysates and supernatants were collected and subjected to HE4 assay (Human HE4 Quantikine ELISA Kit, R&D Systems). The amount of HE4 in supernatant was normalized to the protein concentration of matching cell lysate. The levels of HER2 were determined by Human Total ErbB2/Her2 DuoSet IC ELISA (R&D systems. Wester blot analysis was conducted using the protocol previously published (see Kim, K. K. et al. Tetrathiomolybdate inhibits mitochondrial complex IV and mediates degradation of hypoxia-inducible factor-1alpha in cancer cells. Sci. Rep. 5, 14296, 2015). Data Acquisition and Statistical Analysis. Gene expression profiling of septins, comparing microdissected normal ovarian stroma (N=8) against that of tumor stroma samples (N=31) from high grade serous ovarian cancer patients, was obtained from Mixed Ovarian Cancer (CAFs)-Wong-77-u133p2 data-set through ‘R2: Genomics Analysis and Visualization Platform (http://r2/am/n1). […] Survival curves between septin high and low population and their statistical significance were analyzed using GraphPad Prism software (Mantel-Cox test). […]

A further data set concerns HCH-1 cells. Description: MTS cell viability, HCH-1. In kind it is cell-based. Conditions: HCH-1, 72 hours, compared with UR214-9. As for the experimental part: (§1) Cell lines, Culture, and Reagents. Cells were maintained in either DMEM (SKOV-3, KLE, OVCAR-3, OVCAR8-C5 and IGROV-1) or RPMI-1640 (ECC-1 and HCH-1), supplemented with 10% fetal calf serum (or 20% for OVCAR-3), penicillin (100 units/mL), and streptomycin (100 μg/mL) at 37° C. with 5% CO2 in a humidified incubator. Antibodies were purchased from Abcam (septin-2; ab179436) and Cell Signaling Technology; ERK (9102), p-ERK (4370), -actin (3700), u-Tubulin (2144), EGFR (4267) and HER2 (4290). FCF was purchased from Abcam. All other chemicals were from Sigma Aldrich. Synthesis of Derivaties. […] The reaction was monitored using thin-layer chromatography plates with DCM-MeOH or pure ethyl acetate as eluent. Spots were monitored in a UV chamber. […] Quantitative Real-Time PCR. […] Quantitative real-time PCR was conducted using QuantStudio 12 K Flex Real-Time PCR System (ABI) and the Taqman Gene Expression Assay (ABI) consisting of the FAM-labeled probes as follows: SEPT2 (Hs01565417_ml); WFDC2 (Hs00899484_ml); TBP (Hs00427620_ml) or B2M (Hs00187842_ml), which was used as reference for normalization. […] Cell viability, proliferation, and cellular apoptosis were measured using the MTS (Promega), BrdU cell proliferation (Cell Signaling Technology), and Caspase-Glo 3/7 apoptosis detection (Promega) assays, following the respective manufacturer's recommendations with suitable modification. […]

Data set [3] relates to ECC-1 cells. In words: MTS cell viability, ECC-1. Conditions: ECC-1, 48 hours, MTS (FIG. 2B). It is filed as cell-based. As for the experimental part: (§2) Cell lines, Culture, and Reagents. Cells were maintained in either DMEM (SKOV-3, KLE, OVCAR-3, OVCAR8-C5 and IGROV-1) or RPMI-1640 (ECC-1 and HCH-1), supplemented with 10% fetal calf serum (or 20% for OVCAR-3), penicillin (100 units/mL), and streptomycin (100 μg/mL) at 37° C. with 5% CO2 in a humidified incubator. Antibodies were purchased from Abcam (septin-2; ab179436) and Cell Signaling Technology; ERK (9102), p-ERK (4370), -actin (3700), u-Tubulin (2144), EGFR (4267) and HER2 (4290). FCF was purchased from Abcam. All other chemicals were from Sigma Aldrich. Synthesis of Derivaties. […] The reaction was monitored using thin-layer chromatography plates with DCM-MeOH or pure ethyl acetate as eluent. Spots were monitored in a UV chamber. The reaction mixture, upon completion of the reaction, was poured into wet ice mixture and triturated, then the separated solid was filtered by vacuum. The product was washed with hexane, followed by diethyl ether, and was dried under vacuum. The compounds were characterized by spectrophotometric techniques. Quantitative Real-Time PCR. The indicated cell lines were transfected with siRNA targeting septin-2 or non-targeting control siRNA (Santa Cruz Biotechnology: sc-37007 or sc-40936) using Lipofectamine 3000 (Invitrogen). […] Quantitative real-time PCR was conducted using QuantStudio 12 K Flex Real-Time PCR System (ABI) and the Taqman Gene Expression Assay (ABI) consisting of the FAM-labeled probes as follows: SEPT2 (Hs01565417_ml); WFDC2 (Hs00899484_ml); TBP (Hs00427620_ml) or B2M (Hs00187842_ml), which was used as reference for normalization. […] Cell viability, proliferation, and cellular apoptosis were measured using the MTS (Promega), BrdU cell proliferation (Cell Signaling Technology), and Caspase-Glo 3/7 apoptosis detection (Promega) assays, following the respective manufacturer's recommendations with suitable modification. […] Survival curves between septin high and low population and their statistical significance were analyzed using GraphPad Prism software (Mantel-Cox test). […]

Data set [4] has as its system ECC-1 cells. In words: BrdU cell proliferation assay. It is filed as cell-based. As to conditions: ECC-1, 48 hours, BrdU, lower dose ranges. As for the experimental part: as §2
Data set [5] concerns ECC-1 cells. Description: Caspase-3/7 activity apoptosis assay. Conditions: ECC-1, 33 μM, 48 hours. In kind it is cell-based. On the procedure: as §1
For a further data set, the system named is HER2. Description: Western blot of HER2 expression in ECC-1 and HCH-1 cells. In kind it is cell-based. Conditions: UR214-7 33 μM, UR214-9 33 μM, FCF 300 μM, 24 hours. As for the experimental part: as §2
A further data set has as its system EGFR. Description: Western blot of EGFR expression. In kind it is cell-based. Conditions: UR214-7 33 μM, UR214-9 33 μM; 24 hours. On the procedure: as §1

Consider `CN(C)C/C=C/C(=O)Nc1cc2c(Nc3ccc(F)c(Cl)c3)ncnc2cc1O[C@H]1CCOC1` [Afatinib], for which, in data set [1] (1 μM UR214-9), the “dysregulated genes, down” value is 523 and the “dysregulated genes, up” value was 713. The “dysregulated (differentially expressed) genes versus control” value in data set [1] (1 μM UR214-9, adjusted p-value <0.05) was found to be 1236 genes.

As to `O=C(Nc1ccnc(Cl)c1)Nc1cc(SC(F)(F)F)ccc1Cl` [UR214-1], the “proliferation in multiple endometrial and ovarian cancer cells” value in data set [2] is recorded as “blocked proliferation”. Also, the “cytotoxic / anti-proliferative activity (FIG. 2A)” value in data set [2] (MTS) is reported as “very potent cytotoxic activity”. The HE4 secretion result with HE4 was “reduced HE4 secretion”.

For the molecule `O=C(Nc1cccc(OCc2ccccc2)c1)Nc1ccnc(Cl)c1` [UR214-2], in data set [2] (MTS), the “cytotoxic / anti-proliferative activity (FIG. 2A)” value was “not tolerated”.

`O=C(Nc1ccc(-n2cccc2)cc1)Nc1ccnc(Cl)c1` [UR214-3]: the “cytotoxic / anti-proliferative activity (FIG. 2A)” value in [2] (MTS) is reported as “not tolerated”.

`O=C(Nc1ccc(-c2ncccn2)cc1)Nc1ccnc(Cl)c1` [UR214-4]: the “cytotoxic / anti-proliferative activity (FIG. 2A)” value in [2] (MTS) is “not tolerated”.

Regarding `O=C(Nc1cnc(Cl)nc1)Nc1cc(SC(F)(F)F)ccc1Cl` [UR214-6], the “cytotoxic / anti-proliferative activity (FIG. 2A)” value in data set [2] (MTS) is listed as “lack of activity”.

For `O=C(Nc1ccnc(Cl)c1)Nc1cccc(SC(F)(F)F)c1F` [UR214-7], the “proliferation in multiple endometrial and ovarian cancer cells” value in data set [2] was “blocked proliferation”. In addition, the “viability of tumor cells, dose-dependent (FIG. 2E)” value in the data set with HCH-1 cells is “superior efficacy”. Besides, in the data set with ECC-1 cells [3], the concentration inhibiting viability was ≥ 11 µM. Moreover, in the data set with ECC-1 cells [4], the proliferation entry was “reduce proliferation”. In addition, in the data set on ECC-1 cells [5], the “apoptosis (caspase-3/7 activity)” value was “caused apoptosis”. Further, in the data set with HER2, the HER2 expression entry was “inhibition of HER2 expression”. Besides, the EGFR expression result with EGFR was “did not have an effect”. Besides, the HE4 secretion result with HE4 is recorded as “reduced HE4 secretion”.

In the case of `O=C(Nc1ccnc(Br)c1)Nc1cccc(C(F)(F)F)c1F` [UR214-11], the “viability of tumor cells, dose-dependent (FIG. 2E)” value in data set [2] (72 hours, MTS) is listed as “did not lose activity”.
